Source: patent US20010056104A1, “Treatment of ocular hypertension and glaucoma” (priority 2000, published 2001)
Like-named read-outs stand apart in the source and are kept apart here.

Experiments:
[1] = tested on: prostaglandin receptor sites in bovine corpus luteal membranes; test: Ligand binding assay in bovine corpus luteal membranes; conditions: for binding to PG receptor sites: in words
Description: (§1) In ligand binding studies, the specificity of labeled unoprostone isopropyl and the metabolite binding to prostaglandin receptor sites in bovine corpus luteal membranes was determined. This tissue expresses most of the PG receptors including an abundance of FP receptors. In signal transduction studies, the mobilization of intracellular calcium using Fluorescence Imaging technique in the primary culture of human ciliary muscle cells and cyclic AMP generation in rabbit iris-ciliary body was measured.
This method is well described in the literature. […] Free unbound ligands were separated by rapid filtration using a millipore filtration assembly. Membrane bound radioactivity retained by the filter was counted. It is important to define the following terms for appreciation of the binding data:
Total binding is defined as the amount bound in the absence of unlabeled ligand.
Specific binding is defined as the binding displaced by unlabeled ligand.
Non-specific binding is the binding not displaced by unlabeled ligand.

[2] = tested on: human ciliary muscle cells; test: Intracellular calcium mobilization (Fura 2-AM) in human ciliary muscle cells; type: cell-based; conditions: for mobilization of intracellular calcium: concentrations ranging from 10-1000 nM; for affinity for EP1 or FP or TP receptors: suggested by inability to mobilize intracellular calcium
Description: as §1
Human ciliary muscle cells at confluency were loaded with Fura 2-AM. Cells in a petri dish were put in a jacketed chamber mounted on the microscope platform. The chamber was maintained at 37° C. by thermostatically controlled water circulating through the chamber jacket. The cells were then exposed to the excitation wavelengths of 334 and 380 nm with an emission wavelength of 510 nm. Cells were perfused with HEPES buffer with or without test compounds. The intracellular calcium was visualized and photographed using Attofluor RatioVision software program and Zeiss fluorescence microscope.

PGF2α receptors [3] = conditions: free acid form; contraction of cat iris sphincter; cited from earlier work
PGF2α receptors [4] = molecular target: T1, PGF2α receptors (Bos taurus, UniProt P37289); conditions: free acid form; bovine corpus luteum; cited from earlier work
T1 construct: host or cells: bovine corpus luteum

[5] = long-term monkey trial, preliminary published results; cited from earlier work
[6] = competing ligand unoprostone isopropyl 2.5 μM
[7] = competing ligand unoprostone isopropyl 5.0 μM
[8] = competing ligand unoprostone isopropyl 8.0 μM
[9] = competing ligand unoprostone isopropyl 16.0 μM

T1 sequence (P37289 whole entry): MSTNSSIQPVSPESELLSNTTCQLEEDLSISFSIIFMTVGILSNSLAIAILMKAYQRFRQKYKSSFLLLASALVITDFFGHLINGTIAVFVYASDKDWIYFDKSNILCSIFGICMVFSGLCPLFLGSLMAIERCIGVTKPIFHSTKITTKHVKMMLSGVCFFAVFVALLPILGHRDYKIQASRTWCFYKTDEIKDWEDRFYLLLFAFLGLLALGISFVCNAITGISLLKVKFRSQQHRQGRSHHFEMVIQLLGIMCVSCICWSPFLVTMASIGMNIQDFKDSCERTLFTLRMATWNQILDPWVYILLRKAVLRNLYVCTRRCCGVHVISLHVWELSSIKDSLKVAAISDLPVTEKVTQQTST

CCCCCCCC(=O)CC[C@@H]1[C@@H](C/C=C\CCCC(=O)O)[C@@H](O)C[C@H]1O [metabolite]
binding to PG receptor sites [1]: does not bind | mobilization of intracellular calcium [2]: did not mobilize | affinity for EP1 or FP or TP receptors [2]: no affinity | agonistic activity to PGF2α receptors relative to PGF2α (PGF2α receptors [3]): 1/1600 | binding inhibitory activity relative to PGF2α (PGF2α receptors [4]): 1/280

CCCCCCCC(=O)CC[C@@H]1[C@@H](C/C=C\CCCC(=O)OC(C)C)[C@@H](O)C[C@H]1O [unoprostone isopropyl, 13,14-dihydro-15-keto-20-ethyl PGF2α isopropyl ester]
specific binding to bovine corpus luteal membranes (in words) [1]: no specific binding sites | Total Binding ([1]; at 5 minutes): 21.0 fmoles/mg protein | Specific Binding of 3H-unoprostone isopropyl [1, 6]: 0 | Total 3H-unoprostone isopropyl binding [1, 6]: 7.0 ƒmoles/mg protein | Specific Binding of 3H-unoprostone isopropyl [1, 7]: 0 | Total 3H-unoprostone isopropyl binding [1, 7]: 6.5 ƒmoles/mg protein | Specific Binding of 3H-unoprostone isopropyl [1, 8]: 0 | Total 3H-unoprostone isopropyl binding [1, 8]: 6.7 ƒmoles/mg protein | Specific Binding of 3H-unoprostone isopropyl [1, 9]: 0 | Total 3H-unoprostone isopropyl binding [1, 9]: 7.6 ƒmoles/mg protein | displacement of bound 3H-unoprostone isopropyl by unlabeled competing ligand ([1]; competition studies): did not displace | binding to DP, EP1, EP2, EP3, IP and TP receptor sites ([1]; concluded from competition studies): does not bind | binding to PG receptor sites [1]: does not bind | specific binding to bovine corpus luteal membranes (in words) ([1]; listed as 3H-unoprostone isopropyl): no specific binding | Total Binding ([1]; membrane protein conc. 50 μg): 13.0 ± 2.0 (3) fmoles/mg protein | Total Binding ([1]; membrane protein conc. 100 μg): 23.0 ± 6.0 (3) fmoles/mg protein | Total Binding ([1]; membrane protein conc. 200 μg): 32.0 ± 8.0 (3) fmoles/mg protein | Specific Binding ([1]; radioligand conc. 8.0 nM): 0 fmoles/mg protein | Total Binding ([1]; radioligand conc. 8.0 nM): 19.4 ± 2.0 ƒmoles/mg protein | Specific Binding ([1]; radioligand conc. 16.0 nM): 0 fmoles/mg protein | Total Binding ([1]; radioligand conc. 16.0 nM): 25.5 ± 4.0 ƒmoles/mg protein | Specific Binding ([1]; radioligand conc. 32.0 nM): 0 fmoles/mg protein | Total Binding ([1]; radioligand conc. 32.0 nM): 40.0 ± 7.0 ƒmoles/mg protein | change of total binding with time ([1]; up to 60 minutes): did not increase with time | mobilization of intracellular calcium [2]: did not mobilize | affinity for EP1 or FP or TP receptors [2]: no affinity | iridic pigmentation [5]: no iridic pigmentation
